Experimental data as given in patent US11572590B2, “Methods for evaluating tumor cell spheroids using 3D microfluidic cell culture device” (Dana-Farber Cancer Institute, Inc., priority 2017, dated 2023).
Like-named read-outs stand apart in the source and are kept apart here.

Assays:
Test in all cases: SelectScreen Kinase Profiling, single point inhibition and IC50 for off-target kinases
Type in all cases: biochemical
[1] = molecular target: off-target kinases (Homo sapiens, UniProt O94921); settings: CDK14 (PFTK1)/cyclin Y, LanthaScreen Binding
[2] = molecular target: off-target kinases (Homo sapiens, UniProt P07947); settings: YES1, ATP Km app, ZLYTE
[3] = molecular target: off-target kinases (Homo sapiens, UniProt P08922); settings: ROS1, ZLYTE, ATP Km app
[4] = molecular target: off-target kinases (Homo sapiens, UniProt P09619); settings: PDGFRB (PDGFR beta), ZLYTE, ATP Km app
[5] = molecular target: off-target kinases (Homo sapiens, UniProt P10721, N822K); settings: KIT N822K, LanthaScreen Binding
[6] = molecular target: off-target kinases (Homo sapiens, UniProt P31751); settings: AKT2 (PKB beta), ZLYTE, ATP Km app
[7] = molecular target: off-target kinases (Homo sapiens, UniProt P42684); settings: ABL2 (Arg), ZLYTE, ATP Km app
[8] = molecular target: T1, off-target kinases (Homo sapiens, UniProt P46734); settings: MAP2K3 (MEK3), LanthaScreen Binding
T1 sequence (P46734 1-347): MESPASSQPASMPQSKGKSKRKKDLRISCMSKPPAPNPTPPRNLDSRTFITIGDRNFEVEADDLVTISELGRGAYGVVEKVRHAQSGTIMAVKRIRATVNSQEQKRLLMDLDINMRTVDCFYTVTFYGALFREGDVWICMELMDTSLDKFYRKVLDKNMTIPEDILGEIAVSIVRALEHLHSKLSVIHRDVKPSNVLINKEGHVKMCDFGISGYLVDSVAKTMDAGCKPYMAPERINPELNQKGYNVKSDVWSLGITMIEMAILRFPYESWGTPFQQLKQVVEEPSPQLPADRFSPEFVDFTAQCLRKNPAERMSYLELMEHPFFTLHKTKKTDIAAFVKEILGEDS

[9] = molecular target: off-target kinases (Homo sapiens, UniProt P51957); settings: NEK4, ZLYTE, ATP Km app
[10] = molecular target: off-target kinases (Homo sapiens, UniProt Q16288); settings: NTRK3 (TRKC), ZLYTE, ATP Km app
[11] = molecular target: off-target kinases (Homo sapiens, UniProt Q5S007, R1441C); settings: LRRK2 R1441C, ATP Km app, Adapta
[12] = molecular target: off-target kinases (Homo sapiens, UniProt Q9H1R3); settings: MYLK2 (skMLCK), ATP Km app, ZLYTE

off-target kinases (Homo sapiens, UniProt Q5S007, R1441C), sequence (Q5S007 whole entry R1441C): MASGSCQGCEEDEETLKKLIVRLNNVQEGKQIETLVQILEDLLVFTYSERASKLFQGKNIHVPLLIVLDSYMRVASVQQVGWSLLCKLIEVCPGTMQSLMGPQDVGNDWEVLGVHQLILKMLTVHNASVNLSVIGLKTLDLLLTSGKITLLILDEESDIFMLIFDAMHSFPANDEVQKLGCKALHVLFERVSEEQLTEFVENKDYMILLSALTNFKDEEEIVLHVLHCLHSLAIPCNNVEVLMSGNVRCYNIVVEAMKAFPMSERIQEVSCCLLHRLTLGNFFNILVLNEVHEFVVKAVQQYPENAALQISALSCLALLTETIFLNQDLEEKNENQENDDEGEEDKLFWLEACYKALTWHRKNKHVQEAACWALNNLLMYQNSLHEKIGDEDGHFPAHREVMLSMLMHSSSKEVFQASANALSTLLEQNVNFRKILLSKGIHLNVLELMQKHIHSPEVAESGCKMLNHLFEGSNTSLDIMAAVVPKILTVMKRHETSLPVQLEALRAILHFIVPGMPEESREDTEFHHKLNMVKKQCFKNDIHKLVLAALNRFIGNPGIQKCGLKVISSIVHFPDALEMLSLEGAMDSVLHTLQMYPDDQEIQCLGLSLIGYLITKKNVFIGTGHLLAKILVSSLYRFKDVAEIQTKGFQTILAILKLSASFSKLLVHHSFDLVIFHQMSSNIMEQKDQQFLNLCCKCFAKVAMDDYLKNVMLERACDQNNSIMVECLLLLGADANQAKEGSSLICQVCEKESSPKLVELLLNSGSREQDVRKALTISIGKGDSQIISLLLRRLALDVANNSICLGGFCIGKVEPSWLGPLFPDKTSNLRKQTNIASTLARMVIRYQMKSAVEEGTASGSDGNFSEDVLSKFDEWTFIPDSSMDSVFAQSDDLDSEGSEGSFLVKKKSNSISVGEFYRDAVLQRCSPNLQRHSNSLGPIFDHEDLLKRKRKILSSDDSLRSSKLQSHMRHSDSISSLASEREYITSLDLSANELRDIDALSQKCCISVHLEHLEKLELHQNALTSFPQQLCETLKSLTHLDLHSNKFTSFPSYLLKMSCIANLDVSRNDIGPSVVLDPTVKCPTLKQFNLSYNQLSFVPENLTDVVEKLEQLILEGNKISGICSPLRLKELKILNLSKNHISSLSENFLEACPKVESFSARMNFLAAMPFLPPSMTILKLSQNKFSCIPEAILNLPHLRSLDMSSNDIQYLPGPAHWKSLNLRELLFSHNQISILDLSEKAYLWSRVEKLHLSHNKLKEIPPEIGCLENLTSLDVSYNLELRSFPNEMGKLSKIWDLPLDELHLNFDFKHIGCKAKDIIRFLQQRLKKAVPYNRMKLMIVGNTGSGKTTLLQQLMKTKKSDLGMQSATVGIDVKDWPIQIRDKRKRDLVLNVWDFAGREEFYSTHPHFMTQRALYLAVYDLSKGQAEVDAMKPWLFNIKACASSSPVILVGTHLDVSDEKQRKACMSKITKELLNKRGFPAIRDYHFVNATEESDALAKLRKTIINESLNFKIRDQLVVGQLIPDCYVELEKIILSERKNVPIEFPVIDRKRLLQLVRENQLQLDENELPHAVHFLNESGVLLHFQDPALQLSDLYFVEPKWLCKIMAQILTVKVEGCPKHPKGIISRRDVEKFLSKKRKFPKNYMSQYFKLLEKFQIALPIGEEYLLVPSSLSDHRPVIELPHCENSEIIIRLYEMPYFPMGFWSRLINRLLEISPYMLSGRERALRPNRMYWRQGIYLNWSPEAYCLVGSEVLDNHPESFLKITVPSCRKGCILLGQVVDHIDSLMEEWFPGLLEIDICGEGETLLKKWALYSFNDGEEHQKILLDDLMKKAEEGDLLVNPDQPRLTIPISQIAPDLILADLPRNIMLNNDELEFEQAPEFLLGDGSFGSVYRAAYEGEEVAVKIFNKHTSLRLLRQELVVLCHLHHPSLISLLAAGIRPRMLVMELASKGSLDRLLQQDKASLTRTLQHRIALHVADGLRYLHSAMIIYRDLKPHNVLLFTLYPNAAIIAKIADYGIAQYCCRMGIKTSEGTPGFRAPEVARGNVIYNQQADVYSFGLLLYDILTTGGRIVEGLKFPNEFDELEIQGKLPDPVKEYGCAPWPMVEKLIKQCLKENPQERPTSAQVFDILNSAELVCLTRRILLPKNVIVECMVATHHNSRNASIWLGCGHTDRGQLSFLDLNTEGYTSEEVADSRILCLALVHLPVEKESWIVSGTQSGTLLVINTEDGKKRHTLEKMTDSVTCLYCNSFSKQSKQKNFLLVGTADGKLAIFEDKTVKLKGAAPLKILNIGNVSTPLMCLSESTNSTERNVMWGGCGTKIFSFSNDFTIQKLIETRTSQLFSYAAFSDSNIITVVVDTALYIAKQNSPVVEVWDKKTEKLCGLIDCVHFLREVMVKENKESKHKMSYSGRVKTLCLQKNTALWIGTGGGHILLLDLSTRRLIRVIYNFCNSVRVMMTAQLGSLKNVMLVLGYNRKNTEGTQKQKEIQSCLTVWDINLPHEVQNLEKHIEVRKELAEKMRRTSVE
off-target kinases (Homo sapiens, UniProt P51957), sequence (P51957 whole entry): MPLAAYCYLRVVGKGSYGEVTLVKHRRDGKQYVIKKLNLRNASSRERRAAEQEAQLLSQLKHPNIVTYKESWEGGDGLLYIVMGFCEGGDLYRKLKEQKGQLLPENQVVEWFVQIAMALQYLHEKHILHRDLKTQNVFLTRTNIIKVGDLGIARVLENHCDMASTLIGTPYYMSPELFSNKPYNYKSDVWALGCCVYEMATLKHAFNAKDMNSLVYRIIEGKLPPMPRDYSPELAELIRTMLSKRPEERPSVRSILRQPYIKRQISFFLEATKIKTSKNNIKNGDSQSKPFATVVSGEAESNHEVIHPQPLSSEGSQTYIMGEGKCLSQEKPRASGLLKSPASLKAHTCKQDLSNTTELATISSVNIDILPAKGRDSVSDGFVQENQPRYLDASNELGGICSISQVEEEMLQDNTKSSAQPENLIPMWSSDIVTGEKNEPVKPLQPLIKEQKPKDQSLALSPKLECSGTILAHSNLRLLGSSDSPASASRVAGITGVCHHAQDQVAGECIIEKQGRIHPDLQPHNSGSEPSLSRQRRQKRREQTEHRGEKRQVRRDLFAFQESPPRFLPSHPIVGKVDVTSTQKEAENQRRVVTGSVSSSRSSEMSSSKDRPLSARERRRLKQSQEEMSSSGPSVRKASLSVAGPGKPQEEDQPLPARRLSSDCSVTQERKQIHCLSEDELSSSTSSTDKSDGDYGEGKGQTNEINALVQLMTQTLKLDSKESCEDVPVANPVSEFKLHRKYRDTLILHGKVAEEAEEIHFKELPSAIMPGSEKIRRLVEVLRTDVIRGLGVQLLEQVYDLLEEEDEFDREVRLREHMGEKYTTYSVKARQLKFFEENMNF
off-target kinases (Homo sapiens, UniProt P42684), sequence (P42684 whole entry): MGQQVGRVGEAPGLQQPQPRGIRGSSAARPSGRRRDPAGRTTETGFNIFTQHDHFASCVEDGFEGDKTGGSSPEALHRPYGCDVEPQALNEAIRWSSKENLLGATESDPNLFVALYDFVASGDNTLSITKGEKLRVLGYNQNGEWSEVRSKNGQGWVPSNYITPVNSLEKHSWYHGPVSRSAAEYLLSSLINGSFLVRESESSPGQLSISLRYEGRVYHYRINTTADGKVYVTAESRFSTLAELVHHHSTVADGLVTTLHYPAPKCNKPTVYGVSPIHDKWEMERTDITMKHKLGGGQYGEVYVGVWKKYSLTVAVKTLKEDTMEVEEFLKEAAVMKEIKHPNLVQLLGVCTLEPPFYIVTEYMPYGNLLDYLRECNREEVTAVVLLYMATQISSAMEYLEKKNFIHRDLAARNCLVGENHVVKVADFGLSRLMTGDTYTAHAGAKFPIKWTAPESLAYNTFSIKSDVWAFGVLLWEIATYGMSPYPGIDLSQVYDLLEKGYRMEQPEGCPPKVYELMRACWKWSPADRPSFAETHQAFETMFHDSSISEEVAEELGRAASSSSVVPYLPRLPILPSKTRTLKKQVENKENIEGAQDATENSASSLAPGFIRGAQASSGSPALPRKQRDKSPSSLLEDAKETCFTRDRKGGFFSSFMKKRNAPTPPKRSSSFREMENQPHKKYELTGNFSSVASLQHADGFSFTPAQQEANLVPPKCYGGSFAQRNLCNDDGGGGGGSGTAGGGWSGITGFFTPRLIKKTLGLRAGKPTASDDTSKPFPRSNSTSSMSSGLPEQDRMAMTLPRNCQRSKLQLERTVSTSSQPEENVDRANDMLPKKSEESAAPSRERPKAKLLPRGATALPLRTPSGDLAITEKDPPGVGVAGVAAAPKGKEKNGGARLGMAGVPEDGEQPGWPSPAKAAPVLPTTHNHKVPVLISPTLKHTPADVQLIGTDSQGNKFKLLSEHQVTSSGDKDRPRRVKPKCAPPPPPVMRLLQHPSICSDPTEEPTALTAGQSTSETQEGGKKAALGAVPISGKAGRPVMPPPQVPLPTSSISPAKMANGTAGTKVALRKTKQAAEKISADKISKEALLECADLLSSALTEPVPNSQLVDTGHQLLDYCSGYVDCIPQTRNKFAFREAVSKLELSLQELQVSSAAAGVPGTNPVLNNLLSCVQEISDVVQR
off-target kinases (Homo sapiens, UniProt P31751), sequence (P31751 whole entry): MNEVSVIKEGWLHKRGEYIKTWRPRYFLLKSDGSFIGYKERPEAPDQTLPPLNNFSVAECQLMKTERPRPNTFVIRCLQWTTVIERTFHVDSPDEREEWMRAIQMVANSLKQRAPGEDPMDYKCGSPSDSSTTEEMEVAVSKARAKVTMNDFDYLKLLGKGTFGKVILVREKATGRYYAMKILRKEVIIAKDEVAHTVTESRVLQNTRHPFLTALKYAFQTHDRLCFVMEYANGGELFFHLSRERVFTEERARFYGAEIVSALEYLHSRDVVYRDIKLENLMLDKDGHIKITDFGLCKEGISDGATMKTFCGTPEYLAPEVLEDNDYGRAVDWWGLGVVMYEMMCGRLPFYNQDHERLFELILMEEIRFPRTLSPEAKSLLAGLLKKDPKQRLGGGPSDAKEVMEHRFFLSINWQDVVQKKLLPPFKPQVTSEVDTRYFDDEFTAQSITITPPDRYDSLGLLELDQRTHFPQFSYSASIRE

SMILES: N#Cc1cc(-c2ncnc(Nc3ccc(N4CCN(C5COC5)CC4)cc3)n2)ccc1OC1CCOCC1 [Compound 1, 5-(4-((4-(4-(oxetan-3-yl)piperazin-1-yl)phenyl)amino)-1,3,5-triazin-2-yl)-2-((tetrahydro-2H-pyran-4-yl)oxy)benzonitrile]
- inhibition ([1]; read-out: % Inhibition 1): 56%
- inhibition ([1]; read-out: % Inhibition 2): 51%
- inhibition ([1]; read-out: % Inhibition Avg): 54%
- inhibition ([2]; read-out: % Inhibition 1): 55%
- inhibition ([2]; read-out: % Inhibition 2): 51%
- inhibition ([2]; read-out: % Inhibition Avg): 53%
- inhibition ([3]; read-out: % Inhibition 1): 30%
- inhibition ([3]; read-out: % Inhibition 2): 26%
- inhibition ([3]; read-out: % Inhibition Avg): 28%
- inhibition ([4]; read-out: % Inhibition 1): 34%
- inhibition ([4]; read-out: % Inhibition 2): 30%
- inhibition ([4]; read-out: % Inhibition Avg): 32%
- inhibition ([5]; read-out: % Inhibition 1): 66%
- inhibition ([5]; read-out: % Inhibition 2): 67%
- inhibition ([5]; read-out: % Inhibition Avg): 66%
- inhibition ([6]; read-out: % Inhibition 1): 3%
- inhibition ([6]; read-out: % Inhibition 2): 2%
- inhibition ([6]; read-out: % Inhibition Avg): 3%
- inhibition ([7]; read-out: % Inhibition 1): 40%
- inhibition ([7]; read-out: % Inhibition 2): 39%
- inhibition ([7]; read-out: % Inhibition Avg): 40%
- inhibition ([8]; read-out: % Inhibition 1): 5%
- inhibition ([8]; read-out: % Inhibition 2): 8%
- inhibition ([8]; read-out: % Inhibition Avg): 7%
- inhibition ([9]; read-out: % Inhibition 1): 23%
- inhibition ([9]; read-out: % Inhibition 2): 23%
- inhibition ([9]; read-out: % Inhibition Avg): 23%
- inhibition ([10]; read-out: % Inhibition 1): 17%
- inhibition ([10]; read-out: % Inhibition 2): 19%
- inhibition ([10]; read-out: % Inhibition Avg): 18%
- inhibition ([11]; read-out: % Inhibition 1): 99%
- inhibition ([11]; read-out: % Inhibition 2): 95%
- inhibition ([11]; read-out: % Inhibition Avg): 97%
- inhibition ([12]; read-out: % Inhibition 1): 65%
- inhibition ([12]; read-out: % Inhibition 2): 60%
- inhibition ([12]; read-out: % Inhibition Avg): 63%
